Earlier results on 16 molecules are cited in patent US20170369677A1, “MATERIALS FREE OF ENDOCRINE DISRUPTIVE ACTIVITY” (CertiChem, Inc., priority 2006, published 2017).

Where two headings read alike, the source gives them in different places.

For series [1] the following is noted: statement in words.
For series [2] the following is noted: for Carcinogenic or Other Toxic Effects: common pigments used in plastic formulations, Table P-3.
The conditions of series [3]: recommended daily dietary allowance for these antioxidants.
For series [4], the system named is snails, fish, frogs, and rodents.
In a further series the test system is ER. As to conditions: statement in words.

Take `CC(=O)[C@H]1CC[C@H]2[C@@H]3CCC4=CC(=O)CC[C@]4(C)[C@H]3CC[C@]12C` [progesterone]: the “estrogenic or androgenic activity” value in series [1] is given as “androgenic, but no known estrogenic, activity”. `C[C@]12CCC(=O)C[C@@H]1CC[C@@H]1[C@@H]2CC[C@]2(C)[C@@H](O)CC[C@@H]12` [DHT, 5a-dihydrotestosterone, reference compound]: the “estrogenic or androgenic activity” value in series [1] is “strong androgen”. On to `C=CCl` [Vinylchloride], for which the “toxic effects stated in text” value in series [2] (statement in words) was “other toxic effects”. As to `Cc1cc(C(C)(C)C)c(O)c(C(C)(C)C)c1` [BHT, Butylated hydroxytoulene], the ADI in series [3] was 0 to 0.125 mg/kg. Also, the “estrogenic or androgenic activity” value in series [1] is “has estrogenic activity”. Regarding `CC(C)(c1ccc(O)cc1)c1ccc(O)cc1` [Bisphenol A], the “levels in human umbilical cords” value was 0.2 to 2 µg/kg. Also, in series [4], the “dose at which deleterious developmental changes have been reported” value is 0.5 to 2 µg/kg/day. In addition, in series [4] (listed as bisphenol A), the “dose at which deleterious developmental changes have been reported” value is 0.5 to 2 µg/kg/day. Besides, the “estrogenic or androgenic activity” value in series [1] is “deleterious estrogenic activity”.

Regarding Tocopherols, in series [3], the ADI was 0.15 to 2 mg/kg. Turning to `[C-]#N.[C-]#N.[C-]#N.[C-]#N.[C-]#N.[C-]#N.[Fe+2].[Fe+3].[NH4+]` [Ferric amonimum, ferric amonimum ferrocyanide], the “Carcinogenic or Other Toxic Effects” value in series [2] was “Yes”. For the molecule `[O]=[Mo](=[O])([O-])[O-].[Pb+2]` [Lead molybdate], the “Carcinogenic or Other Toxic Effects” value in series [2] is given as “Yes”. Consider `CCCOC(=O)c1cc(O)c(O)c(O)c1` [Propyl gallate], for which the ADI in series [3] was 0 to 2.5 mg/kg.

For `CC(C)(C)c1cc(Cc2cc(C(C)(C)C)c(O)c(C(C)(C)C)c2)cc(C(C)(C)C)c1O` [4,4′-methylenebis (2,6-di-t-butylphenol)], the “ER binding activity observed” value with ER was “lack of binding activity”. With `O=C(O)c1ccc(C(=O)O)cc1` [Terephthalic, terephthalic acid], in series [1], the “estrogenic or androgenic activity” value was “deleterious estrogenic activity”. For `COc1ccc(O)c(C(C)(C)C)c1` [BHA, Butylated hydroxyanisole], in series [3], the ADI was 0 to 0.5 mg/kg. As to `CC(C)(C)c1cc(O)ccc1O` [TBHQ, Tert-Butylhydroquinone], the ADI in series [3] is 0 to 0.2 mg/kg.

With `C=C` [Ethylene], the “estrogenic or androgenic activity” value in series [1] is reported as “no known estrogenic activity or other deleterious effects”. Turning to `C[C@]12CC[C@@H]3c4ccc(O)cc4CC[C@H]3[C@@H]1CC[C@@H]2O` [17β-estradiol (E2), 17β-estradiol, reference compound], the “estrogenic or androgenic activity” value in series [1] was “strong estrogen”. With `CC(C)CCC[C@@H](C)[C@H]1CC[C@H]2[C@@H]3CC=C4C[C@@H](O)CC[C@]4(C)[C@H]3CC[C@]12C` [Cholesterol], the “estrogenic or androgenic activity” value in series [1] was “little or no known estrogenic or androgenic activity”.
